From ChEMBL document CHEMBL4619774 (J Med Chem, 2020)
Values after ≈ are worked out from the molar mass of the structure shown.

How the values were obtained:
Coagulation factor XI [1] = target: T1, Coagulation factor XI (Homo sapiens, UniProt P03951); test: Inhibition of human F11a using D-Leu-Pro-Arg*Rh110-D-Pro as substrate preincubated for 60 mins followed by substrate addition and measured after 60 mins by fluorescence assay
Plasma kallikrein = Plasma kallikrein (Homo sapiens, UniProt P03952); assay type: single protein
Plasma kallikrein, sequence (P03952 20-390 limits assumed): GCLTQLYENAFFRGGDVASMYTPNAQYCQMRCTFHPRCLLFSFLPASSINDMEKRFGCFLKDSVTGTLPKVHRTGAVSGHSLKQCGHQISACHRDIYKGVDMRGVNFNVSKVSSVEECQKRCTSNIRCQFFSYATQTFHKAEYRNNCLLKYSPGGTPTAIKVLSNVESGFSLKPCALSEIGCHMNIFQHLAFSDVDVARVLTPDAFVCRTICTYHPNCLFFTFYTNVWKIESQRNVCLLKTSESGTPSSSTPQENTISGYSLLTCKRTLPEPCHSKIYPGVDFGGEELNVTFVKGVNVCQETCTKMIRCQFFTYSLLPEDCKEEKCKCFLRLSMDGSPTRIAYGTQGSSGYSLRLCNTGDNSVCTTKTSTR
Plasma kallikrein, sequence (P03952 391-638 limits assumed): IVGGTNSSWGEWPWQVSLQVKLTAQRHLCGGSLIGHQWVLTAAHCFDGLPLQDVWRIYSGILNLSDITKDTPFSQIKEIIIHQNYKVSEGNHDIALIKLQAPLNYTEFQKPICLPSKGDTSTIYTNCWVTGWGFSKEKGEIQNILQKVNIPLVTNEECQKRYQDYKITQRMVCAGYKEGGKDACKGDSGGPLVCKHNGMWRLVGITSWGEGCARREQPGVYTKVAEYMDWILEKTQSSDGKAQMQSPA

[2] = Dose normalized Cmax in C57BL/6 mouse at 1 mg/kg, iv bolus injection or 3 mg/kg, po by LC-MS/MS analysis; assay type: ADME, organism-based; settings: in vivo
Complement factor D = Complement factor D (Homo sapiens, UniProt P00746); assay type: single protein
Complement factor D, sequence (P00746 whole entry, the tested form may be a part): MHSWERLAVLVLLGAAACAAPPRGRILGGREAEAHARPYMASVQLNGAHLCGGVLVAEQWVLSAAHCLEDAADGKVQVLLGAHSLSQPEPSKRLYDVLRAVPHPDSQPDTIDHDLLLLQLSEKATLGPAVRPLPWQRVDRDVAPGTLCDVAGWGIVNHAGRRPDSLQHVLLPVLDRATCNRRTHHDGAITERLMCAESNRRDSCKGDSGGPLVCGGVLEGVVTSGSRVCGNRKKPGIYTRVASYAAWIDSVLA

Coagulation factor XI [3] = target: T1, Coagulation factor XI; test: Inhibition of […] human plasma F11a catalytic domain expressed in Escherichia coli strain BL21(DE3) using D-Leu-Pro-Arg*Rh110-D-Pro as substrate preincubated for 60 mins followed by substrate addition and measured after 60 mins by fluorescence assay
[4] = Clearance in C57BL/6 mouse at 1 mg/kg, iv bolus injection or 3 mg/kg, po by LC-MS/MS analysis; assay type: ADME, organism-based; settings: in vivo
[5] = Volume of distribution at steady state in C57BL/6 mouse at 1 mg/kg, iv bolus injection or 3 mg/kg, po by LC-MS/MS analysis; assay type: ADME, organism-based; settings: in vivo, read-out: Vdss
[6] = Terminal half life in C57BL/6 mouse at 1 mg/kg, iv bolus injection or 3 mg/kg, po by LC-MS/MS analysis; assay type: ADME, organism-based; settings: in vivo, read-out: beta t1/2 (converted)
[7] = Dose normalized AUC in C57BL/6 mouse at 3 mg/kg, po by LC-MS/MS analysis; assay type: ADME, organism-based; settings: in vivo
[8] = Oral bioavailability in C57BL/6 mouse at 3 mg/kg by LC-MS/MS analysis; assay type: ADME, organism-based; settings: in vivo
Homo sapiens = species: Homo sapiens; test: Selectivity ratio of IC50 for inhibition of human complement FD to IC50 for inhibition of human F11a
[9] = human, caco-2; BLD = below limit of detection
in vitro [10] = settings: human, Caco-2
physchem = settings: aqueous buffer, pH 6.8
Coagulation factor VII = target: T2, Coagulation factor VII (Homo sapiens, UniProt P08709); assay type: single protein
T2 sequence (P08709 whole entry): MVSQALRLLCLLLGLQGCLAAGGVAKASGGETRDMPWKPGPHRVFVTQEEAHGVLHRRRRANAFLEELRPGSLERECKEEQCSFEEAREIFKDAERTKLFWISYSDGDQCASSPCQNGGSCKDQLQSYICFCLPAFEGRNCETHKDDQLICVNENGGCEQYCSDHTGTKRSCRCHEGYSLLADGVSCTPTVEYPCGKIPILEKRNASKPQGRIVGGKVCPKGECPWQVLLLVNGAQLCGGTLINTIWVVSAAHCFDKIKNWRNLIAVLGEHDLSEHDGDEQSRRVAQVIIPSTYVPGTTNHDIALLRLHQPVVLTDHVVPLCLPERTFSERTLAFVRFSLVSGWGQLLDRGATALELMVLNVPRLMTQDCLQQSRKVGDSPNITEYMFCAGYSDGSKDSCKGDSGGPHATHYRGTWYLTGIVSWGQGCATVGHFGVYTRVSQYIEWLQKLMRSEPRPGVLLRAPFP

Coagulation factor IX = Coagulation factor IX (Homo sapiens, UniProt P00740); assay type: single protein
Coagulation factor IX, sequence (P00740 47-191 limits assumed): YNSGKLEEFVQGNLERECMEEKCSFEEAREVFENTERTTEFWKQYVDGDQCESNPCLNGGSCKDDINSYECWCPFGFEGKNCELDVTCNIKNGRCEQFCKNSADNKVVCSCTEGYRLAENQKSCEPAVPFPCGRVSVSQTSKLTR
Coagulation factor IX, sequence (P00740 227-461 limits assumed): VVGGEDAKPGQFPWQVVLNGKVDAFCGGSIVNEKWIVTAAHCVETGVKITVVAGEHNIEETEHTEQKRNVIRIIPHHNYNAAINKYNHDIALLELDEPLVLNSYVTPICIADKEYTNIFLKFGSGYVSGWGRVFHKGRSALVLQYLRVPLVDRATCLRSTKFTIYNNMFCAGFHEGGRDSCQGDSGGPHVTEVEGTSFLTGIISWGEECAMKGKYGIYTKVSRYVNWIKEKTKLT

Coagulation factor X = Coagulation factor X (Homo sapiens, UniProt P00742); assay type: single protein
Coagulation factor X, sequence (P00742 41-179 limits assumed): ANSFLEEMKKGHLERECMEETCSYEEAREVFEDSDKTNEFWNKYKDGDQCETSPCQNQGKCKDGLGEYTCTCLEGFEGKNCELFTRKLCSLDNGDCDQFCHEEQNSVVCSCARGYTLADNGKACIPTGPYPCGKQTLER
Coagulation factor X, sequence (P00742 235-488 limits assumed): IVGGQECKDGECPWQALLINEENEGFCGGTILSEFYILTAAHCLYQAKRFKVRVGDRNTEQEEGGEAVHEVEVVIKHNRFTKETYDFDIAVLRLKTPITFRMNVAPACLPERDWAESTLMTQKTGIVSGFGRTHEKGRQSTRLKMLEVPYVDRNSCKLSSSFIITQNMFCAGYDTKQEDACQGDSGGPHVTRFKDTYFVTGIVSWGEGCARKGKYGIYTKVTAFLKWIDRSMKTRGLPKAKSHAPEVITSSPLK

Prothrombin = Prothrombin (Homo sapiens, UniProt P00734); assay type: single protein
[11] = target: Tissue-type plasminogen activator (Homo sapiens, UniProt P00750); assay type: single protein
Tissue-type plasminogen activator, sequence (P00750 whole entry): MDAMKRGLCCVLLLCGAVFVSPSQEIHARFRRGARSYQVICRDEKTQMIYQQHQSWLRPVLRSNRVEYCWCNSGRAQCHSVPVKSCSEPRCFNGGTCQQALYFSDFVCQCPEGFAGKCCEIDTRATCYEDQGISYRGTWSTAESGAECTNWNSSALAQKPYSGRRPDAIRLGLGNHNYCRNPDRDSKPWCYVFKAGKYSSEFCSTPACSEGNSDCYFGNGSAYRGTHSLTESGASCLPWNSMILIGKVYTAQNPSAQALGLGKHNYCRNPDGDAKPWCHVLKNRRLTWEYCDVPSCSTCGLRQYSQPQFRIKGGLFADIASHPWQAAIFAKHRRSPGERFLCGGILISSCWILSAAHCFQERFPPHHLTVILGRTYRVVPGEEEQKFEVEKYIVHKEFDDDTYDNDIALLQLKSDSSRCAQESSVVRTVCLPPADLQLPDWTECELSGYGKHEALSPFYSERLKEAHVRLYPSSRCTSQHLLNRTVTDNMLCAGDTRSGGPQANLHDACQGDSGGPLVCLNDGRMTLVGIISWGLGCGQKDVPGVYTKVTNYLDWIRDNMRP

Plasminogen = Plasminogen (Homo sapiens, UniProt P00747); assay type: single protein
Plasminogen, sequence (P00747 97-580 limits assumed): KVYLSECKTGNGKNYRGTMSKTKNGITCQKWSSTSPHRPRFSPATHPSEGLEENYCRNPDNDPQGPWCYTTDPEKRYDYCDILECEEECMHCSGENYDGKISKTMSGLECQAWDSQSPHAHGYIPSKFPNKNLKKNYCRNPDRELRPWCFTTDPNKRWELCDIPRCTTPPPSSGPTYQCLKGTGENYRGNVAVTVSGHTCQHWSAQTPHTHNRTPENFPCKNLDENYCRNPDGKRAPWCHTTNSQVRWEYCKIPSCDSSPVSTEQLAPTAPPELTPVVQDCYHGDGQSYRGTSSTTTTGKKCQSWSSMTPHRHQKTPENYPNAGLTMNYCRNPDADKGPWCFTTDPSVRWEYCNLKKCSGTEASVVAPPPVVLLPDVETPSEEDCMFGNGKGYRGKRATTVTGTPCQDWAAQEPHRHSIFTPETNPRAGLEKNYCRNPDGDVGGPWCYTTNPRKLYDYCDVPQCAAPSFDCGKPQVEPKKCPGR
Plasminogen, sequence (P00747 581-810 limits assumed): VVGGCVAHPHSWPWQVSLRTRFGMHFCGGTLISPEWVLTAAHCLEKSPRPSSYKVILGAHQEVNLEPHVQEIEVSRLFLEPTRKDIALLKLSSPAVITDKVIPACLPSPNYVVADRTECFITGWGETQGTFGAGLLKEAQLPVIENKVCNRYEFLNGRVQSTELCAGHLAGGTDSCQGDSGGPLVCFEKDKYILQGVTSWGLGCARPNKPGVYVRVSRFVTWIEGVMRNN

[12] = target: T3, Urokinase-type plasminogen activator (Homo sapiens, UniProt P00749); assay type: single protein
in vitro [13] = settings: human, Caco-2; remark: listed apart in the source
in vitro [14] = settings: human, Caco-2; remark: listed apart in the source
[15] = target: T3, Urokinase-type plasminogen activator; assay type: ADME
Plasma [16] = test: Anticoagulant activity in human plasma assessed as concentration required to double the activated partial thromboplastin time incubated for 3 mins followed by calcium chloride addition by aPTT-s reagent based automated coagulometric method; assay type: functional
Plasma [17] = test: Effect on coagulation in human plasma assessed as concentration required to double the prothrombin time by thromboplastin-DS reagent based automated coagulometric method; assay type: ADME, cell-free
[18] = Dose normalized Cmax in C57BL/6 mouse at 1 mg/kg, iv bolus injection or 10 mg/kg, po by LC-MS/MS analysis; assay type: ADME, organism-based; settings: in vivo
[19] = Lipophilicity, log D of compound at pH 6.8; assay type: physicochemical; settings: buffer
[20] = Terminal half life in C57BL/6 mouse at 1 mg/kg, iv bolus injection or 10 mg/kg, po by LC-MS/MS analysis; assay type: ADME, organism-based; settings: in vivo, read-out: beta t1/2 (converted)
[21] = Dose normalized AUC in C57BL/6 mouse at 1 mg/kg, iv by LC-MS/MS analysis; assay type: ADME, organism-based; settings: in vivo
[22] = Volume of distribution at steady state in C57BL/6 mouse at 1 mg/kg, iv bolus injection or 10 mg/kg, po by LC-MS/MS analysis; assay type: ADME, organism-based; settings: in vivo, read-out: Vdss
[23] = target: Voltage-gated inwardly rectifying potassium channel KCNH2 (Homo sapiens, UniProt Q12809)
Voltage-gated inwardly rectifying potassium channel KCNH2, sequence (Q12809 whole entry): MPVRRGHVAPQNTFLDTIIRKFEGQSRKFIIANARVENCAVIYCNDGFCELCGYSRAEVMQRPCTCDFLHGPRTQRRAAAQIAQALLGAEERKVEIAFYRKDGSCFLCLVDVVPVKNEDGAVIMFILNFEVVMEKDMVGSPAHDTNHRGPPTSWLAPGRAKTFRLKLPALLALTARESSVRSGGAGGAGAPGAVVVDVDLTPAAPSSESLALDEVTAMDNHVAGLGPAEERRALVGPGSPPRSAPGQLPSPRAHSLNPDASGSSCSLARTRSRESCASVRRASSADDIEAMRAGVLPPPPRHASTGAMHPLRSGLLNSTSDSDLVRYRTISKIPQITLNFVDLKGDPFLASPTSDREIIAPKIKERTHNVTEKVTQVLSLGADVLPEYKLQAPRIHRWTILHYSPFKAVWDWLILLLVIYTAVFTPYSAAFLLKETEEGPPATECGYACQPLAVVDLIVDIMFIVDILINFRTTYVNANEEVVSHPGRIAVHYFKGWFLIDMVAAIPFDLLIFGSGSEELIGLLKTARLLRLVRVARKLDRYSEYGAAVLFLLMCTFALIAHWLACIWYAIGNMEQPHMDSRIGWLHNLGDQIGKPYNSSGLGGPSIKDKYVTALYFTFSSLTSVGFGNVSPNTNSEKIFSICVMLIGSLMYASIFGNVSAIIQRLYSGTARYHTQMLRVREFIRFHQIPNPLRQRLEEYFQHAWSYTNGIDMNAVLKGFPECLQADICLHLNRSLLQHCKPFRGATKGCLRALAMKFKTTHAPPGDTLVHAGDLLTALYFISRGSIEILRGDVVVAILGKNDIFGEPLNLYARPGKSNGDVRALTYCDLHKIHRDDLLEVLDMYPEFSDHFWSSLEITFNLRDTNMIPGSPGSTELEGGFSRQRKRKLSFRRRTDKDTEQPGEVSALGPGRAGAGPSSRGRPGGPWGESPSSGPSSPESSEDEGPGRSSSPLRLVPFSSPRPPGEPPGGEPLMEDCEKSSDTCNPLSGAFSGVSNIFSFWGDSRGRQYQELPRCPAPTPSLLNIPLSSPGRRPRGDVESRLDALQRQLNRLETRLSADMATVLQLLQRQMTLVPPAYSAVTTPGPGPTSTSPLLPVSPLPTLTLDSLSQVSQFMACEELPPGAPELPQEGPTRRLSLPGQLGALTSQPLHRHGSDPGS

T1 sequence (P03951 19-387 limits assumed): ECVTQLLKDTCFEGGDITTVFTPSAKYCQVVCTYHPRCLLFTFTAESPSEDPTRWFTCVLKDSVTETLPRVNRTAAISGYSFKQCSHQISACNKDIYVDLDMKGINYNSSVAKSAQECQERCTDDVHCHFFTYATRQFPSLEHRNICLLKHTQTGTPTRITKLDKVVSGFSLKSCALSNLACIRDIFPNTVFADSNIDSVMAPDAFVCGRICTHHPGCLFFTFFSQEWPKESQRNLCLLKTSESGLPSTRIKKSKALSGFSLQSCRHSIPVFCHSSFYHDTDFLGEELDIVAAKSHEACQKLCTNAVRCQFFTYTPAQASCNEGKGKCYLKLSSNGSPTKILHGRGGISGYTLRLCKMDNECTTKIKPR
T1 sequence (P03951 388-625 limits assumed): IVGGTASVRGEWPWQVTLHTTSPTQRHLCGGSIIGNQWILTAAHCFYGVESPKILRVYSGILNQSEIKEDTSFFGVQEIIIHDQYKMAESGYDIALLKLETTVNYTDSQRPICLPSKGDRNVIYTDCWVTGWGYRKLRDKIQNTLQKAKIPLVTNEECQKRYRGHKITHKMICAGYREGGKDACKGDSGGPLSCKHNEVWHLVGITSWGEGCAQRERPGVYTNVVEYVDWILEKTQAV

SMILES	IC50 (Coagulation factor XI [1]) [nM]	IC50 (Plasma kallikrein) [nM]	IC50 (Complement factor D) [nM]	IC50 (Coagulation factor XI [3]) [nM]	IC50 (Coagulation factor VII) [nM]	IC50 (Coagulation factor IX) [nM]	IC50 (Coagulation factor X) [nM]	IC50 (Prothrombin) [nM]	IC50 [11] [nM]	IC50 (Plasminogen) [nM]	IC50 [12] [nM]	also measured
NC1COc2ccc(C(=O)N3C[C@@H](c4ccccc4)C[C@H]3C(=O)Nc3cccc(Cl)c3)cc21 (mixture of isomers)	970	1200	–	–	–	–	–	–	–	–	–	–
CC(C)(O)c1cc(COc2ccccc2CC(=O)O)cc(-c2ccc3c(c2)[C@H](N)CO3)c1	4	6	320	170	–	–	–	–	–	–	–	Cmax/dose [2]: 99 nM; clearance [4]: 19 mL/min/kg; Vd [5]: 0.4 L/kg; half-life [6]: 1.7 h; AUC/dose [7]: 186 nM·h; bioavailability [8]: 3%; Ratio IC50 (Homo sapiens): 40; Papp [9]: Bld; Papp B→A (in vitro [10]): 19 ×10⁻⁶ cm/s; solubility thermodynamic (physchem): > 1000 µM
COc1cccc(C(=O)O)c1OCC(O)c1cc(-c2ccc3c(c2)[C@H](N)CO3)cc(C(C)C)c1 (mixture of isomers)	40	160	27200	8110	12500	15500	16300	7430	6680	46200	1130	–
CC(C)(C(N)=O)c1cc(COc2ccccc2CC(=O)O)cc(-c2ccc3c(c2)[C@H](N)CO3)c1	9	11	320	67	–	–	–	–	–	–	–	Ratio IC50 (Homo sapiens): 80; Papp [9]: Bld; Papp B→A (in vitro [10]): 4 ×10⁻⁶ cm/s; solubility thermodynamic (physchem): 780 µM (≈ 359 µg/mL)
CC(C)c1cc(CCOc2c(Cl)cccc2C(=O)O)cc(-c2ccc3c(c2)[C@H](N)CO3)c1	15	21	34200	5490	20500	9600	11100	6220	3670	34000	930	–
CC(C)c1cc(-c2ccc3c(c2)[C@H](N)CO3)cc(C(O)Cn2ccc3cccc(C(=O)O)c32)c1 (mixture of isomers)	< 0.7	16	8920	45	16700	13400	11200	7210	3700	17400	1420	–
Cc1cccc(C(=O)O)c1OCCc1cc(-c2ccc3c(c2)[C@H](N)CO3)cc(C(C)C)c1	17	41	> 100000	6620	45100	11300	12500	9820	4130	> 100000	2480	–
CC(C)c1cc(-c2ccc3c(c2)[C@H](N)CO3)cc(C(O)CN2CCc3cccc(C(=O)O)c32)c1 (mixture of isomers)	2	2	73600	170	8750	7860	1710	6140	490	9580	250	Ratio IC50 (Homo sapiens): 30000
O=C(O)Cc1ccccc1OCc1cccc(-c2ccc3c(c2)CNCC3)c1	400	–	800	–	–	–	–	–	–	–	–	–
CC(C)c1cc(CCOc2ccccc2C(=O)O)cc(-c2ccc3c(c2)[C@H](N)CO3)c1	12	25	1320	1190	3270	40	240	50	90	590	20	–
CC(C)(O)c1cc(COc2ccccc2CC(=O)O)cc(-c2ccc3c(c2)CNCC3)c1	100	330	230	430	–	–	–	–	–	–	–	–
CC(C)(C#N)c1cc(COc2ccccc2CC(=O)O)cc(-c2ccc3c(c2)[C@H](N)CO3)c1	4	2	40	50	–	–	–	–	–	–	–	Cmax/dose [2]: 137 nM; clearance [4]: 55 mL/min/kg; Vd [5]: 0.7 L/kg; half-life [6]: 0.3 h; AUC/dose [7]: 171 nM·h; bioavailability [8]: 25%; Papp A→B (in vitro [13]): 1.4 ×10⁻⁶ cm/s; Papp B→A (in vitro [10]): 41 ×10⁻⁶ cm/s; solubility thermodynamic (physchem): 60 µM (≈ 26.6 µg/mL); efflux ratio (in vitro [14]): 30
CC1(C)COc2c(COc3ccccc3CC(=O)O)cc(-c3ccc4c(c3)[C@H](N)CCO4)cc21	6	4	15000	260	75000	1600	4300	860	190	14000	–	IC50 [15]: 950 nM; Ratio IC50 (Homo sapiens): 2500
CC1(C)COc2c(COc3ccccc3CC(=O)O)cc(-c3ccc4c(c3)[C@H](N)CO4)cc21	3	7	50	85	7100	210	840	130	100	6300	–	Cmax/dose [2]: 1126 nM; clearance [4]: 4 mL/min/kg; Vd [5]: 1 L/kg; half-life [6]: 6.4 h; IC50 [15]: 16 nM; AUC/dose [7]: 6525 nM·h; bioavailability [8]: 61%; Ratio IC50 (Homo sapiens): 17; 2aPTT (Plasma [16]): 2.5 µM; 2PT (Plasma [17]): 19.8 µM; Papp A→B (in vitro [13]): 12 ×10⁻⁶ cm/s; Papp B→A (in vitro [10]): 12 ×10⁻⁶ cm/s; solubility thermodynamic (physchem): < 4 µM; efflux ratio (in vitro [14]): 1
COc1cccc(C(=O)O)c1OCCc1cc(-c2ccc3c(c2)[C@H](N)CO3)cc(C(C)C)c1	3	9	17500	240	28300	10200	6210	9090	2200	30800	400	–
NC1COc2ccc(-c3cccc(COc4ccccc4CC(=O)O)c3)cc21 (racemic)	200	1300	340	–	–	–	–	–	–	–	–	–
CC(C)c1cc(CCNc2ccccc2C(=O)O)cc(-c2ccc3c(c2)[C@H](N)CO3)c1	2520	–	–	–	–	–	–	–	–	–	–	–
CC(C)c1cc(-c2ccc3c(c2)[C@H](N)CO3)cc([C@@H]2CNc3cccc(CC(=O)O)c3O2)c1	< 0.7	1	60	10	2000	30	220	30	50	690	20	2aPTT (Plasma [16]): 0.4 µM
NCc1cccc(-c2cccc(COc3ccccc3CC(=O)O)c2)c1	–	3100	–	–	1400	–	–	–	–	2200	–	Cmax/dose [18]: 2591 nM; logD [19]: 1.91; half-life [20]: 1.6 h; AUC/dose [21]: 3284 nM·h; Vd [22]: 0.7 L/kg; IC50 [23]: > 30000 nM
